Assay results published in paper PMC8729767, “Specific Strains of Honeybee Gut Lactobacillus Stimulate Host Immune System to Protect against Pathogenic Hafnia alvei” (Microbiology Spectrum, 2022).
Like-named read-outs stand apart in the source and are kept apart here. Peptide text beside a SMILES is read from it.

Key:
H. alvei = format: cell-based, Hafnia alvei
Description: To verify the inhibitory effect of AMPs secreted by honeybees on H. alvei, we performed an in vitro AMP resistance assay (Table S2 in the supplemental material). A. mellifera expresses two dominant apidaecin isoforms (Ia, Ib) at a ratio of approximately 1 : 20 ([31]). […] However, low concentration (8–16 μg/ml) of apidaecin-1a and 1b inhibited the growth of H. alvei, and the pathogen was slightly more resistant to apidaecin Ia than to Ib.
To test the activity of AMPs against H. alvei, growth inhibition assays in liquid media were performed using 50% diluted HIA media. AMPs synthesized by GL Biochem and Sangon Biotech were serially diluted in 96-well plates to obtain concentrations of 0.5 to 512 µg/ml. Overnight grown H. alvei cultures from HIA media were diluted to 1 × 10^6 CFU/ml in 50% Heart Infusion Broth. Optical density was recorded after 24 h of incubation at 35°C, 5% CO2.

[1] = tested on: honeybees exposed to H. alvei; assay: H. alvei infection survival assay; format: in vivo, Apis mellifera; conditions: adult worker bees fed 450 μg/ml tetracycline in sucrose syrup, then orally exposed to H. alvei SMH01 for 24 h; N = 30 bees per group; Mantel-Cox test, P < 0.05
Description: Using in vivo virulence assays, we first explored whether H. alvei is pathogenic to adult honeybees. One H. alvei strain SMH01 was isolated from the worker bee gut. Then we investigated if the strain contributes to increased mortality of bees with normal or disturbed gut microbiota. Adult worker bees were collected from a brood frame in the hive and were treated with or without tetracycline. After introduction in the lab, groups of bees were fed filter-sterilized sucrose syrup (controls) or tetracycline suspended in the diet (Tet) for 5 days (Fig. 1A). Then we challenged bees with H. alvei SMH01. Bees were orally exposed to H. alvei in their food for 24 h. […] To confirm the pathogenicity of H. alvei to honeybees, we performed histology of honeybee guts exposed to H. alvei. […] Damaged tissue presented barely preserved mucosal architecture of the rectum in H. alvei-infected bees (Fig. 1C and D).
Approximately 200 adult worker bees were collected from brood frame from the hive kept at Miyun County, Beijing (March 2019). The bees were immobilized at 4°C and were divided into two cohorts (control and tetracycline treatment) distributed to cup cages as previously described ([11]). The cup cages were maintained in an incubator at 35°C, with humidity of 50%. Each cohort has five replicating cup cages containing ∼20 bees in each cup. […]

[2] = H. alvei 1 × 10^6 CFU/ml in 50% Heart Infusion Broth, optical density after 24 h at 35°C, 5% CO2

## hymenoptaecin
H. alvei; H. alvei 1 × 10^6 CFU/ml in 50% Heart Infusion Broth, AMPs serially diluted 0.5 to 512 µg/ml in 96-well plates, optical density after 24 h at 35°C, 5% CO2
  MIC: > 512 µg/mL

## CC[C@H](C)[C@H](NC(=O)[C@H](CCCCN)NC(=O)[C@@H]1CCCN1C(=O)[C@H](CC(N)=O)NC(=O)[C@H](Cc1ccccc1)NC(=O)[C@@H]1CCCN1C(=O)CNC(=O)[C@H](CCC(N)=O)NC(=O)CNC(=O)[C@@H]1CCCN1C(=O)[C@H](Cc1ccccc1)NC(=O)[C@@H](NC(=O)[C@@H]1CCCN1C(=O)[C@H](Cc1ccccc1)NC(=O)[C@@H]1CCCN1C(=O)[C@H](CCCNC(=N)N)NC(=O)[C@H](CCCNC(=N)N)NC(=O)CNC(=O)[C@@H]1CCCN1C(=O)[C@H](CCC(N)=O)NC(=O)[C@@H]1CCCN1C(=O)[C@@H](NC(=O)[C@H](CC(N)=O)NC(=O)[C@@H]1CCCN1C(=O)[C@H](CC(C)C)NC(=O)[C@@H]1CCCN1C(=O)[C@@H](NC(=O)[C@@H](N)Cc1ccc(O)cc1)C(C)C)[C@@H](C)CC)[C@@H](C)O)C(=O)N[C@@H](CCCCN)C(=O)N[C@@H](Cc1c[nH]c2ccccc12)C(=O)N1CCC[C@H]1C(=O)N[C@@H](CCC(N)=O)C(=O)NCC(=O)N[C@@H](Cc1ccc(O)cc1)C(=O)O [abaecin] (H-YVPLPNIPQPGRRPFPTFPGQGPFNPKIKWPQGY-OH; N-terminus and C-terminus assumed)
H. alvei; 24 h
  MIC: > 512 µg/mL

## apidaecin-1a
H. alvei; [2]
  low concentration that inhibited the growth of H. alvei: 8 to 16 µg/mL

## CN(C)[C@@H]1C(O)=C(C(N)=O)C(=O)[C@@]2(O)C(O)=C3C(=O)c4c(O)cccc4[C@@](C)(O)[C@H]3C[C@@H]12 [Tetracycline, tetracycline]
[1]
  survivorship of honeybees after exposure to H. alvei: reduced survivorship

## apidaecin-1b
H. alvei; [2]
  low concentration that inhibited the growth of H. alvei: 8 to 16 µg/mL
H. alvei; in vitro growth inhibition, 24 h, 35°C, 5% CO2
  concentration with a profound inhibition on the growth of H. alvei: ≥ 4 µg/mL
